Results published in patent publication US12054744B2, “NK cells exhibiting an adaptive phenotype and methods for preparing and for using” (Regents of the University of Minnesota, priority 2015, dated 2024).
“And” between values parts separate entries of the source, which are not always exact repeats. Identical values can stand only once.

System: cord blood-derived CD56^+ NK cells
Experiment: Cord blood-derived NK cell culture on OP9 native or OP9-DL1 stromal cells with IL-15 with or without IL-21; FACS for CD57 and SYK
Assay type: cell-based, human
Procedure: OP9 stromal cells transduced with either the empty MigR1 retroviral vector (OP9 native) or with the MigR1 retroviral vector containing the Delta-like 1 gene (OP9-DL1) (Schmitt et al. Immunity. 2002; 17(6):749-756) were cultured in MEMα media+20% fetal bovine serum (FBS) at a concentration of 4×10^5 cells/well in 24-well plates for two days to allow for cell adherence. Plates were then irradiated with 2,000 cGy to stop cell proliferation.
Mononuclear cells were isolated from whole cord blood by density gradient centrifugation. T cells and B cells were depleted by positive magnetic selection using anti-CD3 and anti-CD19 microbeads, respectively. CD3/CD19-depleted cells were then added to irradiated OP9 cells at a concentration of 5×10^5 cells/well and cultured for 14 days in RPMI media+10% FBS supplemented with either 1 ng/mL IL-15 or 10 ng/mL IL-15 with or without 50 ng/mL IL-21.
Cord blood-derived NK cells were analyzed before culture and after 7 and 14 days of culture by fluorescence activated cell sorting (FACS) using the following extracellular and intracellular antibodies: BV785-conjugated anti-CD3 (BioLegend, San Diego, CA), PE-Cy7-conjugated anti-CD56 (BioLegend, San Diego, CA), BV605-conjugated anti-CD57 (BioLegend, San Diego, CA), APC-conjugated SYK (eBioscience, San Diego, CA), and PE-conjugated anti-PLZF (BD Biosciences, San Jose, CA).
The Notch signaling pathway plays an essential role in effector CD8^+ T cell differentiation and controls the acquisition of effector function (Backer et al. Nat Immunol. 2014; 15(12):1143-1151). To determine if Notch signaling could play a role in driving the differentiation and expansion of terminally differentiated and adaptive NK cell subsets, CD3/CD19-depleted mononuclear cells were cultured from cord blood on native OP9 stromal cells or OP9 stromal cells stably transduced with the Notch ligand DL1 in the presence of low-dose (1 ng/mL) IL-15 or high-dose (10 ng/mL) IL-15 with or without IL-21 (50 ng/mL). Cells were harvested at days 7 and 14, and CD56^+ NK cells were analyzed by fluorescence activated cell sorting (FACS) for expression of CD57 and SYK. Prior to culture, an average of 2.13%±0.44 of CD56^+ NK cells expressed CD57.

[1] = OP9-DL1, high-dose (10 ng/mL) IL-15, day 7
[2] = OP9-DL1, high-dose (10 ng/mL) IL-15, day 14
[3] = OP9-DL1, low-dose (1 ng/mL) IL-15, day 7
[4] = OP9-DL1, low-dose (1 ng/mL) IL-15, day 14
[5] = OP9 native, high-dose (10 ng/mL) IL-15, day 7
[6] = OP9 native, high-dose (10 ng/mL) IL-15, day 14
[7] = OP9 native, low-dose (1 ng/mL) IL-15, day 7
[8] = OP9 native, low-dose (1 ng/mL) IL-15, day 14

IL-15: cytokine in culture medium, low-dose 1 ng/mL or high-dose 10 ng/mL
percentage of CD56^+ NK cells expressing CD57 [1]: 1.30%±0.31 | percentage of CD56^+ NK cells lacking SYK [1]: 0.34%±0.04 and 0.67%±0.10 | percentage of CD56^+ NK cells expressing CD57 [2]: 0.86%±0.44 | percentage of CD56^+ NK cells lacking SYK [2]: 0.43%±0.15 | percentage of CD56^+ NK cells expressing CD57 [3]: 0.91%±0.34 | percentage of CD56^+ NK cells lacking SYK [3]: 0.25%±0.06 | percentage of CD56^+ NK cells expressing CD57 [4]: 0.93%±0.40 | percentage of CD56^+ NK cells lacking SYK [4]: 0.17%±0.08 | percentage of CD56^+ NK cells expressing CD57 [5]: 0.70%±0.23 | percentage of CD56^+ NK cells lacking SYK [5]: 0.21%±0.05 | percentage of CD56^+ NK cells expressing CD57 [6]: 0.22%±0.10 | percentage of CD56^+ NK cells lacking SYK [6]: 0.43%±0.15 | percentage of CD56^+ NK cells expressing CD57 [7]: 0.59%±0.19 | percentage of CD56^+ NK cells lacking SYK [7]: 0.18%±0.06 | percentage of CD56^+ NK cells expressing CD57 [8]: 0.24%±0.11 | percentage of CD56^+ NK cells lacking SYK [8]: 0.07%±0.03
